Reference: ChEMBL document CHEMBL5634096, “Design, synthesis and bioevaluation of PI3Kα-selective inhibitors as potential colorectal cancer drugs” (Eur J Med Chem, 2023)
Active and inactive are the calls of the source. No cut-off for these calls is given here.

Legend:
[1] = biological target: Phosphatidylinositol 4,5-bisphosphate 3-kinase catalytic subunit alpha isoform (Homo sapiens, UniProt P42336); experiment: Inhibition of PI3Kalpha (unknown origin) by ADP-Glo luminescent kinase assay
[2] = biological target: Phosphatidylinositol 4,5-bisphosphate 3-kinase catalytic subunit beta isoform (Homo sapiens, UniProt P42338); experiment: Inhibition of PI3Kbeta (unknown origin) by ADP-Glo luminescent kinase assay
[3] = biological target: T1, Phosphatidylinositol 4,5-bisphosphate 3-kinase catalytic subunit delta isoform (Homo sapiens, UniProt O00329); experiment: Inhibition of PI3Kdelta (unknown origin) by ADP-Glo luminescent kinase assay
T1 sequence (O00329 whole entry): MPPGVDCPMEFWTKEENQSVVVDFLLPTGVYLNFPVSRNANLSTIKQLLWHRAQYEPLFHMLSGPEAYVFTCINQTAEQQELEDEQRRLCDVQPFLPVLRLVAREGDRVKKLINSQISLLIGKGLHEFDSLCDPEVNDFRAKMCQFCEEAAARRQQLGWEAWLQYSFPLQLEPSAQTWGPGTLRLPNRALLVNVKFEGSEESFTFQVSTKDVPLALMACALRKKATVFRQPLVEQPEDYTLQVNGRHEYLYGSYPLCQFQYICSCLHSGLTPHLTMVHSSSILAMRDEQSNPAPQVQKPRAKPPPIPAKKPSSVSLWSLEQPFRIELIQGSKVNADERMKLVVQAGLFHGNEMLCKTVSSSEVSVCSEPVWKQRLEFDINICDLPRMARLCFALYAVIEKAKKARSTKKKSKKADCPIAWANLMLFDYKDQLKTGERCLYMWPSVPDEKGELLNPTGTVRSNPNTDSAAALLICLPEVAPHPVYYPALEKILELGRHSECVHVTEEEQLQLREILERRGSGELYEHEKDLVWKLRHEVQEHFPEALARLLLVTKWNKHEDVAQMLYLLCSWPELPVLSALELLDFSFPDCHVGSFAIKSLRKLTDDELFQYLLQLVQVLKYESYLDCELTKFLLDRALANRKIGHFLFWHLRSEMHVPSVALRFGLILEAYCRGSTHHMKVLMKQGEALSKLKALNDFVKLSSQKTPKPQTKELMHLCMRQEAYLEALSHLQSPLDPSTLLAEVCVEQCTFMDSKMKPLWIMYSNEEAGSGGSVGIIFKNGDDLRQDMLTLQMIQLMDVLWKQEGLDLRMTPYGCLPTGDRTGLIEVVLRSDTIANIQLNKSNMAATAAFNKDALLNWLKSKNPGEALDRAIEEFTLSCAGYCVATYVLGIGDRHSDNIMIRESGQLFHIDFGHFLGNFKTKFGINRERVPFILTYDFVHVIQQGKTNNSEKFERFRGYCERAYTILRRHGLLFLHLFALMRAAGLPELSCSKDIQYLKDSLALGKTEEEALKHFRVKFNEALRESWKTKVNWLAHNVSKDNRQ

[4] = biological target: Phosphatidylinositol 4,5-bisphosphate 3-kinase catalytic subunit gamma isoform (Homo sapiens, UniProt P48736); experiment: Inhibition of PI3Kgamma (unknown origin) by ADP-Glo luminescent kinase assay
MCF7 [5] = experiment: Antiproliferative activity against human MCF7 cells assessed as reduction in cell viability incubated for 24 to 48 hrs by CCK-8 assay; type: functional, cell-based
HCT-116 [6] = experiment: Antiproliferative activity against human HCT-116 cells assessed as reduction in cell viability incubated for 24 to 48 hrs by CCK-8 assay; type: functional, cell-based
MDA-MB-231 = experiment: Antiproliferative activity against human MDA-MB-231 cells assessed as reduction in cell viability incubated for 24 to 48 hrs by CCK-8 assay; type: functional, cell-based
SW-620 = experiment: Antiproliferative activity against human SW-620 cells assessed as reduction in cell viability incubated for 24 to 48 hrs by CCK-8 assay; type: functional, cell-based
MCF7 [7] = experiment: Antiproliferative activity against human MCF7 cells expressing PIK3CA with E545K mutation assessed as reduction in cell viability incubated for 24 to 48 hrs by CCK-8 assay; type: functional, cell-based
HCT-116 [8] = experiment: Antiproliferative activity against human HCT-116 cells expressing PIK3CA with H1047R mutation assessed as reduction in cell viability incubated for 24 to 48 hrs by CCK-8 assay; type: functional, cell-based
[9] = Cytotoxicity against human MCF-10A cells assessed as reduction in cell viability incubated for 24 to 48 hrs by CCK-8 assay; type: toxicity, cell-based
[10] = Cytotoxicity against human NCM460 cells assessed as reduction in cell viability incubated for 24 to 48 hrs by CCK-8 assay; type: toxicity, cell-based
[11] = Metabolic stability in Sprague-Dawley rat liver microsomes assessed as compound remaining at 5 ug/ml incubated for 1 hr in presence of NADPH by LC-MS/MS analysis; type: ADME, Microsome; details: at 5 µg/mL, read-out: Stability
[12] = Metabolic stability in Sprague-Dawley rat liver microsomes assessed as half life at 5 ug/ml incubated for 1 hr in presence of NADPH by LC-MS/MS analysis; type: ADME, Microsome; details: dose 5 µg/ml
[13] = Metabolic stability in Sprague-Dawley rat liver microsomes assessed as intrinsic clearance at 5 ug/ml incubated for 1 hr in presence of NADPH by LC-MS/MS analysis; type: ADME, Microsome; details: dose 5 µg/ml
Cytochrome P450 1A2 = Cytochrome P450 1A2 (Homo sapiens, UniProt P05177); experiment: Inhibition of CYP1A2 in human liver microsomes using phenacetin as substrate pre-incubated for 30 mins followed by substrate addition and measured after 15 mins in presence of NADPH by LC/MS analysis; type: ADME, Microsome
Cytochrome P450 2C9 = Cytochrome P450 2C9 (Homo sapiens, UniProt P11712); experiment: Inhibition of CYP2C9 in human liver microsomes using tolbutamide as substrate pre-incubated for 30 mins followed by substrate addition and measured after 15 mins in presence of NADPH by LC/MS analysis; type: ADME, Microsome
Cytochrome P450 2C19 = Cytochrome P450 2C19 (Homo sapiens, UniProt P33261); experiment: Inhibition of CYP2C19 in human liver microsomes using omeprazole as substrate pre-incubated for 30 mins followed by substrate addition and measured after 15 mins in presence of NADPH by LC/MS analysis; type: ADME, Microsome
Cytochrome P450 2D6 = Cytochrome P450 2D6 (Homo sapiens, UniProt P10635); experiment: Inhibition of CYP2D6 in human liver microsomes using dextromethorphan as substrate pre-incubated for 30 mins followed by substrate addition and measured after 15 mins in presence of NADPH by LC/MS analysis; type: ADME, Microsome
Cytochrome P450 3A4 = Cytochrome P450 3A4 (Homo sapiens, UniProt P08684); experiment: Inhibition of CYP3A4 in human liver microsomes using midazolam as substrate pre-incubated for 30 mins followed by substrate addition and measured after 15 mins in presence of NADPH by LC/MS analysis; type: ADME, Microsome
[14] = AUC (0 to t) in Sprague-Dawley rat at 5 mg/kg, iv measured upto 24 hrs by LC-MS analysis; type: ADME, organism-based; details: in vivo
[15] = AUC (0 to infinity) in Sprague-Dawley rat at 5 mg/kg, iv measured upto 24 hrs by LC-MS analysis; type: ADME, organism-based; details: in vivo
[16] = MRT (0 to t) in Sprague-Dawley rat at 5 mg/kg, iv measured upto 24 hrs by LC-MS analysis; type: ADME, organism-based; details: in vivo
[17] = MRT (0 to infinity) in Sprague-Dawley rat at 5 mg/kg, iv measured upto 24 hrs by LC-MS analysis; type: ADME, organism-based; details: in vivo
[18] = Half life in Sprague-Dawley rat at 5 mg/kg, iv measured upto 24 hrs by LC-MS analysis; type: ADME, organism-based; details: in vivo
[19] = Clearance in Sprague-Dawley rat at 5 mg/kg, iv measured upto 24 hrs by LC-MS analysis; type: ADME, organism-based; details: in vivo
[20] = Volume of distribution in Sprague-Dawley rat at 5 mg/kg, iv measured upto 24 hrs by LC-MS analysis; type: ADME, organism-based; details: in vivo
[21] = Cmax in Sprague-Dawley rat at 5 mg/kg, iv measured upto 24 hrs by LC-MS analysis; type: ADME, organism-based; details: in vivo
HCT-116 [22] = experiment: Antiproliferative activity against human HCT-116 cells assessed as reduction in cell viability incubated for 48 hrs by CCK-8 assay; type: functional, cell-based; details: dose 20-80 µM
HCT-116 [23] = experiment: Antiproliferative activity against human HCT-116 cells assessed as inhibition of colony formation at 6 uM incubated for 48 hrs by crystal violet staining based assay; type: functional, cell-based
HCT-116 [24] = experiment: Induction of apoptosis in human HCT-116 cells assessed as increased total apoptotic cells at 6 uM incubated for 48 hrs by Annexin V-FITC and propidium iodide staining based flow cytometry analysis (reference value: 4.22 %); type: functional
[25] = Metabolic stability in Sprague-Dawley rat plasma assessed as compound remaining measured upto 3 hrs by LC-MS/MS analysis; type: ADME, cell-free
[26] = Metabolic stability in artificial gastrointestinal fluid assessed as compound remaining measured upto 8 hrs by LC-MS/MS analysis; type: ADME

Phosphatidylinositol 4,5-bisphosphate 3-kinase catalytic subunit beta isoform, sequence (P42338 whole entry, canonical isoform): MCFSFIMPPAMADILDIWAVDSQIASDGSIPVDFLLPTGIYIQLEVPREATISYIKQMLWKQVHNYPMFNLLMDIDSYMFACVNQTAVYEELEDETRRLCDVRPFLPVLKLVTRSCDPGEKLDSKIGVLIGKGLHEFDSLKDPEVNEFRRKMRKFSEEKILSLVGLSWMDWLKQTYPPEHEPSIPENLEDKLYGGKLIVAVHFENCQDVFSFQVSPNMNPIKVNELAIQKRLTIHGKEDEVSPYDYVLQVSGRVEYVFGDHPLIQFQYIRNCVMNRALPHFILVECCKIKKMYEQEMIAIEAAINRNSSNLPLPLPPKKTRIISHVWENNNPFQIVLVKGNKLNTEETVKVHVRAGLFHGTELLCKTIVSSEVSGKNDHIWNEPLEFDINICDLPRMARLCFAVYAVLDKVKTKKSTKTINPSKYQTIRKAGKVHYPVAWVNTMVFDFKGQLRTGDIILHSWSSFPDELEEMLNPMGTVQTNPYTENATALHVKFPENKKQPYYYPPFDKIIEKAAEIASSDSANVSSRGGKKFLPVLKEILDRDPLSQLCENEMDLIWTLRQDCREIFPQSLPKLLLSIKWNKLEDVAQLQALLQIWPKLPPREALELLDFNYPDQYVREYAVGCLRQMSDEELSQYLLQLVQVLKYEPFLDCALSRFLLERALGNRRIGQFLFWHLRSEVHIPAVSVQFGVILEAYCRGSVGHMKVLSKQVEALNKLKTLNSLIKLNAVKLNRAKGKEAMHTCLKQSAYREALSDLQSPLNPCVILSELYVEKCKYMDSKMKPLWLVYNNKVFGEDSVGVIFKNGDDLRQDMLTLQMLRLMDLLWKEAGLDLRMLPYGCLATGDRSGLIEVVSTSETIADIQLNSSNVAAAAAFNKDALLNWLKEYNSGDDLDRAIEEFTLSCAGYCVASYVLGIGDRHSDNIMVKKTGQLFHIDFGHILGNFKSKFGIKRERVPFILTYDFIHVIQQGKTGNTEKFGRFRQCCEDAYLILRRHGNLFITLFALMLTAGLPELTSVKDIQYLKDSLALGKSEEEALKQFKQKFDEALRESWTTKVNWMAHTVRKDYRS
Cytochrome P450 2C9, sequence (P11712 whole entry): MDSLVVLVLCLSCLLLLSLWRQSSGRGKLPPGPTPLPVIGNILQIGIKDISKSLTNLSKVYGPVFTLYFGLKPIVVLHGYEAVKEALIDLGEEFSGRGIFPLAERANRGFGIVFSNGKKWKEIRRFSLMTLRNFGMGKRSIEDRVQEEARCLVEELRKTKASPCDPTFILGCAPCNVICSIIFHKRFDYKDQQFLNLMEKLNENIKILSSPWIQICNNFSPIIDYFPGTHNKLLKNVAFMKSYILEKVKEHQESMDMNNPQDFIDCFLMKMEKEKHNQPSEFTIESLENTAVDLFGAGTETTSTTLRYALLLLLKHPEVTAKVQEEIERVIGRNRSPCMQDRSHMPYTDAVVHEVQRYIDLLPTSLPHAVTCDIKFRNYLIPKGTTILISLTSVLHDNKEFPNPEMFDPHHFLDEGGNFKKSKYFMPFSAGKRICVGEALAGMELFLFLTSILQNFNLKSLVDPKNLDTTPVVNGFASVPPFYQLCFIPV
Cytochrome P450 1A2, sequence (P05177 whole entry): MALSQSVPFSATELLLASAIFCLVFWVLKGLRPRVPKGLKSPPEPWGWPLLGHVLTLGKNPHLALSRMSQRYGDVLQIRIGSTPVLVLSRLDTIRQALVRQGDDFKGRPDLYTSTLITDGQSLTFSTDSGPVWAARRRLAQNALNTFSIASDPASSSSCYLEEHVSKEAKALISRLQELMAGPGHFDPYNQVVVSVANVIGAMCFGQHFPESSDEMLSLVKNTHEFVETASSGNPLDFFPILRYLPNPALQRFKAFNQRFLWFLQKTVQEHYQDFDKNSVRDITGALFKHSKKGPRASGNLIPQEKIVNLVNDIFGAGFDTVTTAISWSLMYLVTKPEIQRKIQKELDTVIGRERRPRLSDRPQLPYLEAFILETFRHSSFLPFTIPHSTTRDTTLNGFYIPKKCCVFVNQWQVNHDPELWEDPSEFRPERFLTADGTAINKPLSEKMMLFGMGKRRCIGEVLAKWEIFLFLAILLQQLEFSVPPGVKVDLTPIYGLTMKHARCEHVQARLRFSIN
Cytochrome P450 3A4, sequence (P08684 whole entry): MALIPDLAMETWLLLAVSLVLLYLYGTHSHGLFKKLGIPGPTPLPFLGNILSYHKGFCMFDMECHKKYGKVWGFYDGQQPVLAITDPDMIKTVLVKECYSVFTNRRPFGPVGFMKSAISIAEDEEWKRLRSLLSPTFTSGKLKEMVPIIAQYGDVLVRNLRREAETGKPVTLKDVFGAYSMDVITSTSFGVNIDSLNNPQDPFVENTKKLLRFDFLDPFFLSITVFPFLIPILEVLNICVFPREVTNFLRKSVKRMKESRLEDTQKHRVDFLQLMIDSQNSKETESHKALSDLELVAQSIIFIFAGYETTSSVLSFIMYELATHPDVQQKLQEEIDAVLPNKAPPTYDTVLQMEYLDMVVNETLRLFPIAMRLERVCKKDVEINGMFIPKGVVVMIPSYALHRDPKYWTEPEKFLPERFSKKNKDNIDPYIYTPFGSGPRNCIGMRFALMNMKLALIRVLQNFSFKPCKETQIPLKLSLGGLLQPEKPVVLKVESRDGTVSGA
Cytochrome P450 2C19, sequence (P33261 whole entry): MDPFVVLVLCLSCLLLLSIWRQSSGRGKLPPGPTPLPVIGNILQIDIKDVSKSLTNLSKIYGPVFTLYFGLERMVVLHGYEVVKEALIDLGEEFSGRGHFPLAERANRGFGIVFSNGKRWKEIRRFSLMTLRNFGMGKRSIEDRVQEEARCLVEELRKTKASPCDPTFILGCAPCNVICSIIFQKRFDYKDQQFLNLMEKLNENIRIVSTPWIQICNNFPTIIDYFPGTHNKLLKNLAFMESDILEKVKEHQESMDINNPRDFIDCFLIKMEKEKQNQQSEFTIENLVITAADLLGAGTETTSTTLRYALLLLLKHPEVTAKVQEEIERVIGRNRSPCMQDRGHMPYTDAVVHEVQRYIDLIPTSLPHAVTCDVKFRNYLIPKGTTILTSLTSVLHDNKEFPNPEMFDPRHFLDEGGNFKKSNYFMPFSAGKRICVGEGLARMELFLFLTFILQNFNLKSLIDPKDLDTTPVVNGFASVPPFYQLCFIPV
Phosphatidylinositol 4,5-bisphosphate 3-kinase catalytic subunit gamma isoform, sequence (P48736 whole entry, canonical isoform): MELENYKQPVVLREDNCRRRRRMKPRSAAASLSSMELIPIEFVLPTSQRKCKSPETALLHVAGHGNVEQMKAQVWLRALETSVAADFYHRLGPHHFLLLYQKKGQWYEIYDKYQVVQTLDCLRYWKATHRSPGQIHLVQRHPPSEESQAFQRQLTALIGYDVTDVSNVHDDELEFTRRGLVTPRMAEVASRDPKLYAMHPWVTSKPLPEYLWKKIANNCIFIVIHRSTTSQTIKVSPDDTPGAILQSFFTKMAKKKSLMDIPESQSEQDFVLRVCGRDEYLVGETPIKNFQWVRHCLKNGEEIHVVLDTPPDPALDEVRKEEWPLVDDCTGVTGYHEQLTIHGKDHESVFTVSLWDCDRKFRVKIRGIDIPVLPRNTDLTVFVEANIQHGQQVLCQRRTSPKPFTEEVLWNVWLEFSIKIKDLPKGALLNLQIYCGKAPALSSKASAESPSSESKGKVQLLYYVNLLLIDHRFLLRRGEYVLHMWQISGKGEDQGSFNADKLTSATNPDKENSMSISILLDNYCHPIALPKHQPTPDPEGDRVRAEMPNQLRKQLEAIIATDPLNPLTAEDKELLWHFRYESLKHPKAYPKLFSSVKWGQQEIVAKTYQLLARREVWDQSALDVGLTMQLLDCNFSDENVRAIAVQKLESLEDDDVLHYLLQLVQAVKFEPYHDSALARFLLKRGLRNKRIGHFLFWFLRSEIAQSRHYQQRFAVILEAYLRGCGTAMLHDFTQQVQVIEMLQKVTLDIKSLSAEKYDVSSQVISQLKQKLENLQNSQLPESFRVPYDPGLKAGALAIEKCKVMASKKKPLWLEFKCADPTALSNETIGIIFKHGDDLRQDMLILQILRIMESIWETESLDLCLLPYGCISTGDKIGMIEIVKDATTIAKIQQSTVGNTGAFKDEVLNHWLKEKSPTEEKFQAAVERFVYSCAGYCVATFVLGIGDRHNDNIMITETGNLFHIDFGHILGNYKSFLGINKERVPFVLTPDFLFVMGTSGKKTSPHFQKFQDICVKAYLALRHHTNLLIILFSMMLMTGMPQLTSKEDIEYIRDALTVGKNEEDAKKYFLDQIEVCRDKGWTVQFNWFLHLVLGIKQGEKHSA
Cytochrome P450 2D6, sequence (P10635 whole entry): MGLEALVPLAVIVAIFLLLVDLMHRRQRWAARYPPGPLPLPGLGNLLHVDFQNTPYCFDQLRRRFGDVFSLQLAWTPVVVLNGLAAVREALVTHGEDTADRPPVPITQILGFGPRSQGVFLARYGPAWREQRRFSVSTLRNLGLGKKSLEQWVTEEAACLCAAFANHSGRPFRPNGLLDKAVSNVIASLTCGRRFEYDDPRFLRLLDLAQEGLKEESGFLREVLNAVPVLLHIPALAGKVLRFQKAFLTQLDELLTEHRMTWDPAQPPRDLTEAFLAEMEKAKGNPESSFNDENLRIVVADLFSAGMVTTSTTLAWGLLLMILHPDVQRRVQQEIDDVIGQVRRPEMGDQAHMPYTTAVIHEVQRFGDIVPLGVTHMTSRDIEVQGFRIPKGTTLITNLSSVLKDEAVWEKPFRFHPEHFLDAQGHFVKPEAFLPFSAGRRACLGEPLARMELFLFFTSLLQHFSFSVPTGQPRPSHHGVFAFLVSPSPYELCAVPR

Question: Which results are given for `Nc1nc2cc(-c3ccc4ncc(C(=O)N5CCOCC5)n4c3)ccc2o1` [SERABELISIB]?
Answer: IC50 [1]: 0.011 µM; IC50 [2]: 0.594 µM; IC50 [3]: 0.328 µM; IC50 [4]: 0.402 µM; IC50 (MCF7 [5]): 0.64 µM; IC50 (HCT-116 [6]): 5.8 µM; IC50 (MDA-MB-231): 15.8 µM; IC50 (SW-620): 9.99 µM; IC50 (MCF7 [7]): 3.76 µM; IC50 (HCT-116 [8]): 14.1 µM; IC50 [9]: 34.1 µM; IC50 [10]: 29 µM; remaining at 1 h, 5 ug/ml [11]: 86.2%; half-life at 5 ug/ml [12]: 4.44 h; CLH [13]: 5 µL/min/mg; IC50 (Cytochrome P450 1A2): > 10 µM; IC50 (Cytochrome P450 2C9): > 10 µM; IC50 (Cytochrome P450 2C19): > 10 µM; IC50 (Cytochrome P450 2D6): > 10 µM; IC50 (Cytochrome P450 3A4): > 10 µM; AUC(0-t) at 24 h [14]: 7120 ng·h/mL; AUC(0-inf) [15]: 7520 ng·h/mL; MRT last at 24 h [16]: 6.5 h; MRT inf [17]: 7.9 h; half-life [18]: 5.9 h; clearance [19]: 11.7 mL/min/kg; Vd [20]: 5.6 L/kg; Cmax [21]: 1680 ng/mL; Activity (HCT-116 [22]): Dose-Dependent Effect; Activity (HCT-116 [23]): Active; Activity (HCT-116 [24]): 11.68%; Stability [25]: Stable; Stability [26]: Stable
